Structures can show the parent of a compound that is named as a salt. Where two headings read alike, the source gives them in different places. A value given as a limit tells only on which side of the number the result lay.

Data set [1] has as its system mice. The data set is described as follows: Potentiation of the Effects of 5-Hydroxytryptophan (anti-convulsant activity of 5 HTP, electroshock threshold). The note with it: for ED100: Mus musculus, po, dose increasing the elevation of electroshock threshold due to 5HTP by 100%. The class given is in vivo. The procedure: (§1) The ability of the compounds of this invention to potentiate catecholaminesand 5-hydroxytryptamine was examined using the test methods (1) and (2) below, respectively. These tests are indicative of anti-depressant activity.
(2) Potentiation of the Effects of 5-Hydroxytryptophan
5 HTP Potentiation was measured in mice using the potentiation of the anti-convulsant activity of 5 HTP originally-described by Buus Lassen J., (1975), Psychopharmacol, 42, 21-6. Mice (10/group) were pretreated with the compounds under investigation and 30' later received a sub-threshold level dose of L-5 HTP (100 mg/kg ip). 30 minutes later they were subjected to electroshock and the shock level (in V) required to cause tonic extensor spasm in 50% of the mice determined for all groups.
The dose of compounds required to increase the elevation of electroshock threshold due to 5HTP by 100% is determined graphically.

Data set [2] has as its system mice. Put plainly: Acute toxicity (LD50) in mice. The settings on record: initial tests.
Data set [3] is described as follows: Acute toxicity (LD50) in mice. The settings on record: mouse, in vivo, po.
The target of data set [4] is T1, A-form of monoamine oxidase (Homo sapiens, UniProt P21397).
T1 sequence (P21397 1-527): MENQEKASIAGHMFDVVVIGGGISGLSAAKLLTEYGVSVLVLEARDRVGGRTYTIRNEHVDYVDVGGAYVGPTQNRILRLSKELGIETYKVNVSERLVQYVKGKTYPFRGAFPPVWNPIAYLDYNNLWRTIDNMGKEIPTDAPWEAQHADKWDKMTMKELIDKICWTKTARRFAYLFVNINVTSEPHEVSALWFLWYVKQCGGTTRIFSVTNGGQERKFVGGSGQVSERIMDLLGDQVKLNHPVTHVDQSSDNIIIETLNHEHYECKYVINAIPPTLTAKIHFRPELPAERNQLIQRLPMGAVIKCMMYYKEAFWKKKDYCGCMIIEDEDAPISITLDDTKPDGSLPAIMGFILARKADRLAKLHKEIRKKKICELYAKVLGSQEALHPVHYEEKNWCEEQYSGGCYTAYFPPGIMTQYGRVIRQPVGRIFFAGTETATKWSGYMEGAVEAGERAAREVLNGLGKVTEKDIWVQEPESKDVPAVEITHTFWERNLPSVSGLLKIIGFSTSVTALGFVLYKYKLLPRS
The data set is described as follows: Monoamine oxidase A inhibition (other initial tests). In kind it is biochemical.

Data set [5] deals with mice. Put plainly: Prevention of Reserpine-induced Hypothermia. The settings on record: Mus musculus, p.o., oral doses 24, 18 and 2 hours before 1 mg/kg i.v. reserpine, active = significant at p<0.05, read-out: Res Prev (lowest active dose). In kind it is in vivo.
Source text: as §1
(1) Prevention of Reserpine-induced Hypothermia
The method of Spencer in "Anti-Depressant Drugs: Proceedings of the 1st International Symposium", p 184-204. Ed. Garattini, S and Dukes MNG, Excerpta Med Foundation, Amsterdam, 1967, was used. Groups of 5 mice were given oral doses of the test compound 24 hours, 18 hours and 2 hours before an intravenous injection of 1 mg/kg reserpine base. The oral temperatures of the mice were taken immediately before the administration of the reserpine and 6 hours afterwards. Mean temperatures of groups given test compounds are compared with the mean temperatures of the reserpinised controls using the Students t test. Compounds causing significant difference at the level p<0.05 are considered active at that dose.

Setting [6] is: read-out: 5-HTP Potentiation, ED100.

Turning to `Cc1nccn1CCOc1ccc(Br)cc1Cl` [Example 16, l-(4'-Bromo-2'-chlorophenoxyethyl)-2-methylimidazole maleate], the “5-HTP Potentiation, % Change of control at x mg/kg, p.o.” value (“5-HTP Potentiation, % Change … p.o.” below) in the data set on mice [1] (at 30 mg/kg p.o.) is given as 96% at 30. Turning to `CCc1nccn1CCOc1ccc(Cl)cc1Cl` [Example 23, 1-(2',4'-Dichlorophenoxyethyl)-2-ethylimidazole maleate], the ED100 in the data set with mice [1] (setting [6]) was determined as 53 mg/kg.

Turning to `Cc1nccn1CCOc1cc(Cl)ccc1Cl` [Example 13, l-(2',5'-Dichlorophenoxyethyl)-2-methylimidazole maleate], the ED100 in the data set on mice [1] (setting [6]) was 19 mg/kg. On to `Cc1cc(OCCn2ccnc2C)cc(C)c1Cl` [Example 19, 1-(4'-Chloro-3',5'-dimethylphenoxyethyl)-2-methylimidazole maleate], for which the “5-HTP Potentiation, % Change … p.o.” value in the data set on mice [1] (at 100 mg/kg p.o.) is reported as 77% at 100. For the molecule `Cc1nccn1CCOc1cc(Cl)cc(Cl)c1.O=C(O)/C=C\C(=O)O` [Example 11, 1-(3',5'Dichlorophenoxyethyl)-2-methylimidazole maleate], the ED100 in the data set with mice [1] (setting [6]) amounted to 18 mg/kg. Take `Cc1nccn1CCOc1c(Cl)cccc1Cl` [Example 14, 1-(2',6'-Dichlorophenoxyethyl)-2-methylimidazole maleate]: the ED100 in the data set with mice [1] (setting [6]) was determined as 9 mg/kg. Consider `Cc1nccn1CCOc1ccc(Cl)cc1Cl` [formula (II)"], for which, in the data set with mice [2], the level of toxicity entry is on record as “low level of toxicity”. The molecule further displayed an LD50 in data set [3] of over 900 mg/kg. For the same molecule, the “inhibitor of the A-form of monoamine oxidase” value in data set [4] was “selective and reversible inhibitor”. In the case of `Cc1nccn1CCOc1cc(Cl)c(Cl)c(Cl)c1` [Example 17, 1-(3',4',5'-Trichlorophenoxyethyl)-2-methylimidazole maleate], the ED100 with mice [1] (setting [6]) is 70 mg/kg. “1-(2',4'-Dichlorophenoxyethyl)-4(5)-methylimidazole maleate [Example 22]”: the “5-HTP Potentiation, % Change … p.o.” value with mice [1] (at 30 mg/kg p.o.) worked out at 138% at 30. Consider `Cc1nccn1CCOc1ccc(Br)cc1Br.O=C(O)/C=C\C(=O)O` [Example 15, 1-(2',4'-Dibromophenoxyethyl)-2-methylimidazole maleate], for which, in the data set with mice [1] (setting [6]), the ED100 came to 34 mg/kg. For `Cc1nccn1CCOc1ccccc1` [Example 20, 1-(2'-Phenoxyethyl)-2-methylimidazole], the ED100 in the data set with mice [1] (setting [6]) was found to be 10 mg/kg. With `Cc1nccn1CCOc1cccc(Cl)c1` [Example 6], the minimal effective dose in the data set with mice [5] was 100 mg/kg. Besides, in the data set on mice [1] (read-out: 5 HTP pot ED100), the ED100 came to 7 mg/kg. `Cc1nccn1CCCOc1ccc(F)cc1` [Example 9]: in the data set with mice [1] (read-out: 5 HTP pot ED100), the ED100 stood at 10 mg/kg. Consider `Cc1nccn1CCOc1ccc(Cl)cc1` [Example 1, 1-(4'-Chlorophenoxyethyl)-2-methyl imidazole], for which the minimal effective dose in the data set on mice [5] was 10 mg/kg. The ED100 in the data set with mice [1] (read-out: 5 HTP pot ED100) was 5 mg/kg. On to `Cc1nccn1CCOc1cccc(C(F)(F)F)c1` [Example 21, 1-(3'-Trifluoromethylphenoxyethyl)-2-methylimidazole maleate], for which the ED100 in the data set on mice [1] (setting [6]) is 26 mg/kg. As for `Cc1nccn1CCCCOc1ccc(Cl)cc1` [Example 3, 1-(4'-Chlorophenoxybutyl)-2-methyl imidazole], the minimal effective dose in the data set with mice [5] is 100 mg/kg. Also, the ED100 in the data set with mice [1] (read-out: 5 HTP pot ED100) worked out at 16 mg/kg. In the case of `Cc1nccn1CCOc1ccccc1Cl` [Example 7], the minimal effective dose in the data set on mice [5] stood at 100 mg/kg.

For `Cc1nccn1CCOc1ccc(F)cc1` [Example 4], the minimal effective dose in the data set with mice [5] turned out to be 100 mg/kg. The ED100 in the data set with mice [1] (read-out: 5 HTP pot ED100) turned out to be 1 mg/kg.

For the molecule `Cc1nccn1CCOc1ccc(Cl)cc1Cl` [Example 8, 1-(2',4'-Dichlorophenoxyethyl)-2-methylimidazole], in the data set with mice [5], the minimal effective dose was found to be 10 mg/kg. Besides, the ED100 in the data set with mice [1] (read-out: 5 HTP pot ED100) was determined as 20 mg/kg.

As for `COc1ccc(OCCn2ccnc2C)cc1` [Example 5], in the data set with mice [5], the minimal effective dose is 10 mg/kg. In the case of `Cc1nccn1CCOc1cccc(Cl)c1Cl` [Example 12, 1-(2',3'-Dichlorophenoxyethyl)-2-methylimidazole maleate], the ED100 in the data set with mice [1] (setting [6]) stood at 28 mg/kg. `Cc1nccn1CCOc1ccc(Cl)c(Cl)c1` [Example 10, 1-(3',4'-Dichlorophenoxyethyl)-2-methylimidazole]: in the data set on mice [1] (setting [6]), the ED100 was 12 mg/kg.

For the molecule `Cc1cc(Cl)ccc1OCCn1ccnc1C` [Example 18, 1-(4'-Chloro-2'-methylphenoxyethyl)-2-methylimidazole maleate], in the data set with mice [1] (setting [6]), the ED100 is 10 mg/kg. Consider `Cc1nccn1CCCOc1ccc(Cl)cc1` [Example 2, 1-(4'-Chlorophenoxypropyl)-2-methyl imidazole], for which, in the data set with mice [5], the minimal effective dose was determined as 3 mg/kg. Further, in the data set with mice [1] (read-out: 5 HTP pot ED100), the ED100 stood at 3 mg/kg.

The record behind these values is patent EP0049060A1, “Imidazoles” (BEECHAM GROUP PLC, priority 1980, dated 1982).
